The values below come from US11197878B2, “Anti-inflammatory composition including novel quercetin-based compound” (AMOREPACIFIC CORPORATION, priority 2017, dated 2021).

What all share (format): cell-based
For assay [1], the system named is IL-8 (Interleukin 8). Put plainly: Test for inhibiting generation of IL-8 in H2O2-stimulated fibroblast (ELISA). The following applies: for inhibition at 100 µg/mL: Fibroblast, 100 μg/ml, {1−(test sample−control)/(H2O2−control)}×100, read-out: Inhibition effect according to Equation 1, IL-8; for IL-8: fibroblast culture medium, H2O2 500 μM 24 hours, then test material (31, 32: 100 μg/ml) 48 hours, ELISA. As for the experimental part: (§1) Fibroblast (PromoCell, Germany) was inoculated in a 6-well culturing plate at a concentration of 1×10^5 cells, and cultured in a 5% CO2 incubator at 37° C. for 24 hours. The well was treated with H2O2 500 μM and stimulated for 24 hours, and then were treated with quercetin3-O-[3-O″-(E)-p-coumaroyl][β-D-glucopyranosyl-(1→3)-O-α-L-rhamnopyranosyl-(1→6)-O-β-D-glucopyranoside] (‘New Material 31’) and quercetin3-O-[3-O″-(E)-p-coumaroyl][α-L-rhamnopyranosyl-(1→6)-O-β-D-glucopyranoside]) (‘New Material 32’) at a concentration of 100 μg/ml, respectively, and reacted for 48 hours. After the reaction was finished, the culture medium was collected and the ELISA analysis was performed. Herein, α-bisabolol, which is the material typically used as an anti-inflammatory agent and abirritant, was used as a control. As PGE2, a kit of Assay Design® was used, and as IL-6 and IL-8, a kit of Endogen® was used, and the test was carried out according to the methods prescribed in the manuals of the respective companies. (‘31’ refers to New Material 31, and ‘32’ refers to New Material 32) Inhibition effect={1−(test sample−control)/(H2O2−control)}×100 <Equation 1>

Assay [2] concerns IL-6 (Interleukin 6). The experiment in a line: Test for inhibiting generation of IL-6 in H2O2-stimulated fibroblast (ELISA). The following applies: for inhibition at 100 µg/mL: Fibroblast, 100 μg/ml, {1−(test sample−control)/(H2O2−control)}×100, read-out: Inhibition effect according to Equation 1, IL-6; for IL-6: fibroblast culture medium, H2O2 500 μM 24 hours, then test material (31, 32: 100 μg/ml) 48 hours, ELISA. The procedure: as §1
Background: An ELISA detects its analyte on a solid surface through an enzyme-linked reagent.

For assay [3], the system named is PGE2 (Prostaglandin E2). Put plainly: Test for inhibiting generation of PGE2 in H2O2-stimulated fibroblast (ELISA). The following applies: for inhibition at 100 µg/mL: Fibroblast, 100 μg/ml, {1−(test sample−control)/(H2O2−control)}×100, read-out: Inhibition effect according to Equation 1, PGE2; for PGE2: fibroblast culture medium, H2O2 500 μM 24 hours, then test material (31, 32: 100 μg/ml) 48 hours, ELISA. The procedure:
as §1

In the case of `C[C@@H]1O[C@@H](OC[C@H]2O[C@@H](Oc3c(-c4ccc(O)c(O)c4)oc4cc(O)cc(O)c4c3=O)[C@H](O)[C@@H](OC(=O)/C=C/c3ccc(O)cc3)[C@@H]2O)[C@H](O)[C@H](O)[C@H]1O` [New Material 32, quercetin3-O-[3-O″-(E)-p-coumaroyl][α-L-rhamnopyranosyl-(1→6)-O-β-D-glucopyranoside]], in assay [1], the inhibition at 100 µg/mL came out at 61.1% and the IL-8 stood at 235 pg/mL. In addition, in assay [2], the inhibition at 100 µg/mL came to 29.2% and the IL-6 turned out to be 226 pg/mL. Besides, in assay [3], the inhibition at 100 µg/mL was 48.3% and the PGE2 was 280 pg/mL.

Take `C[C@@H]1O[C@@H](OC[C@H]2O[C@@H](Oc3c(-c4ccc(O)c(O)c4)oc4cc(O)cc(O)c4c3=O)[C@H](O)[C@@H](OC(=O)/C=C/c3ccc(O)cc3)[C@@H]2O)[C@H](O)[C@H](O[C@@H]2O[C@H](CO)[C@@H](O)[C@H](O)[C@H]2O)[C@H]1O` [New Material 31, quercetin3-O-[3-O″-(E)-p-coumaroyl][β-D-glucopyranosyl-(1→3)-O-α-L-rhamnopyranosyl-(1→6)-O-β-D-glucopyranoside]]: in assay [1], the inhibition at 100 µg/mL worked out at 61.1% and the IL-8 is 235 pg/mL. In addition, in assay [2], the inhibition at 100 µg/mL came to 29.2% and the IL-6 was found to be 226 pg/mL. Besides, in assay [3], the inhibition at 100 µg/mL came to 51.7% and the PGE2 worked out at 275 pg/mL.

As a reminder, the inhibition is the change of the read-out against control, counted positive when it falls.
